Reference: PubChem BioAssay (NCI)
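Growth conditions: 96-well plates. Treatment: test compound, 48 hours, 5 concentrations. Analysis: linear interpolation between bracketing concentrations; unreached endpoints set to highest concentration. GI50 marks 50% less growth. TGI: concentration producing complete growth inhibition.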

How the values were obtained:
Assay in all cases: NCI tumour cell line growth inhibition, 48 h
[1] = test system: BT-549 breast
[2] = test system: CCRF-CEM leukemia
[3] = test system: DU-145 prostate
[4] = test system: HT29 colon
[5] = test system: MCF7 breast
[6] = test system: OVCAR-4 ovarian
[7] = test system: OVCAR-5 ovarian
[8] = test system: SF-539 CNS
[9] = test system: SK-MEL-28 melanoma
[10] = test system: SK-OV-3 ovarian

| Compound | TGI [1] | TGI [2] | TGI [3] | TGI [4] | GI50 [5] | TGI [5] | TGI [6] | TGI [7] | TGI [8] | TGI [9] | TGI [10] |
| --- | --- | --- | --- | --- | --- | --- | --- | --- | --- | --- | --- |
| CCOC(=O)c1c(Br)c(-c2ccc(OC)cc2)c(Br)n1C | > 100 µM | 40.2 µM | > 100 µM | 56.3 µM | 15.9 µM | 39.7 µM | > 100 µM | > 100 µM | 70.9 µM | > 100 µM | > 100 µM |
| C(/Cc1ccc2c(c1)OCO2)=N\NC1=NCCN1 | > 100 µM | > 100 µM | > 100 µM | > 100 µM |  | > 100 µM | > 100 µM | > 100 µM | > 100 µM | > 100 µM | > 100 µM |
| C/C(=C\c1ccccc1)C(=O)NCc1ccc(C(=O)NCCc2ccccc2)cc1 | > 100 µM | > 100 µM | > 100 µM | 6.81 µM |  | > 100 µM | > 100 µM | > 100 µM | > 81.9 µM | > 100 µM | 51.8 µM |
| C=CC(OC(C)=O)c1ccc(OC(=O)C(C)C)c(OC)c1 (stereo unspecified) | 16.4 µM | 5.03 µM | 24.5 µM | 6.09 µM |  | 5.54 µM | 16.2 µM | 6.29 µM | 22.6 µM | 28.8 µM | 30.3 µM |
| COC(=O)/C=C\C(C#N)(C#N)N=Cc1ccccc1 | 10.8 µM | 2.4 µM | 31.4 µM | 19.4 µM |  | 5.73 µM | 13.5 µM | 38.7 µM | 9.71 µM | 14.3 µM | 32.4 µM |
| CCOC(=O)c1c(-c2ccc(Cl)cc2)c(C#N)c(=S)n(C2OC(COC(C)=O)C(OC(C)=O)C(OC(C)=O)C2OC(C)=O)c1-c1ccccc1 (stereo unspecified) | > 100 µM | > 100 µM | > 100 µM | > 100 µM |  | > 100 µM | > 100 µM | > 100 µM | > 100 µM | > 100 µM | > 100 µM |
| C=C1c2nc3ccccc3n2C=C(c2ccc(C)cc2)N1c1ccc(C)cc1 | > 100 µM | > 100 µM | > 100 µM | > 100 µM |  | > 100 µM | > 100 µM | > 100 µM | > 100 µM | > 100 µM | > 100 µM |
| COC(OC)C1OCC(n2cc(F)c(=O)[nH]c2=O)C1O (stereo unspecified) | > 100 µM | > 100 µM | > 100 µM | > 100 µM |  | > 100 µM | > 100 µM | > 100 µM | > 100 µM | > 100 µM | > 100 µM |
| O=c1c2c3c(sc2nc2n1N=C(c1ccc(Cl)cc1)CS2)CCCC3 | > 100 µM | > 100 µM | > 100 µM | > 100 µM |  | > 100 µM | > 100 µM | > 100 µM | > 100 µM | > 100 µM | > 100 µM |
| CSc1cc(-c2ccccn2)nc(-c2ccccn2)c1 | 6.07 µM | > 100 µM | 26.6 µM | 13 µM |  | 10.1 µM | 13.2 µM | 9.46 µM | 6.06 µM | 14.8 µM | 10.8 µM |
| C=CCc1cc(-c2cc(CC=C)c(O)c(CN(CC)CC)c2)cc(CN(CC)CC)c1O | > 100 µM | 79.1 µM | > 100 µM | 40.9 µM |  | > 100 µM | > 100 µM | 52.6 µM | 54.3 µM | 80.6 µM | > 100 µM |
| CSc1c(C#N)c(N)nc2c(N=Nc3ccc(Br)cc3)c(N)nn12 | 37.3 µM | 10.2 µM | 14.9 µM | 29 µM |  | 8.63 µM | 15.1 µM | 33.3 µM | 23.6 µM | 30.8 µM | 38.1 µM |
| CC(=O)OC(Cc1ccc2ccccc2n1)(C(F)(F)F)C(F)(F)F | 4.17 µM | 1.95 µM | 17.9 µM | 5.43 µM |  | 0.559 µM | 7.08 µM | 10.2 µM | 7.71 µM | 4.03 µM | 33 µM |
| O=c1oc2ccc([N+](=O)[O-])cc2c(Nc2ccc3c(c2)Sc2ccccc2O3)c1[N+](=O)[O-] | 64.3 µM | 50.4 µM | 99.5 µM | 74.3 µM |  | 56.7 µM | 98.2 µM | 47.2 µM | 37.7 µM | 69.2 µM | 47.6 µM |
| O=C(c1ccccc1)n1cc(-c2ccccc2)c2c(=O)[nH]cnc21 | > 100 µM | > 100 µM | > 100 µM | > 100 µM |  | > 100 µM | > 100 µM | > 100 µM | > 100 µM | > 100 µM | > 100 µM |
| CC(=O)c1ccccc1NCC(=O)Nn1cnc2ccc(S(=O)(=O)Nc3ccccc3C(C)=O)cc2c1=O | > 100 µM | > 100 µM | > 100 µM | > 100 µM |  | > 100 µM | > 100 µM | > 100 µM | > 100 µM | > 100 µM | > 100 µM |
| CCOC(=O)c1nc2ccccc2nc1Oc1ccc(C(=O)OC)cc1 | > 100 µM | > 100 µM | > 100 µM | > 100 µM |  | > 100 µM | > 100 µM | > 100 µM | > 100 µM | > 100 µM | > 100 µM |
